Test results: ChEMBL document CHEMBL1158627, “Non-basic ligands for aminergic GPCRs: the discovery and development diaryl sulfones as selective, orally bioavailable 5-HT2A receptor antagonists for the treatment of sleep disorders” (Bioorg Med Chem Lett, 2010)
One block for each compound: values may come before it. Active and inactive are the calls of the source. The calls are words filed in the database; no cut-off is given here.

Columns and labels:
[1] = system: Rattus norvegicus; experiment: Ex vivo receptor occupancy of 5HT2A receptor in rat brain at 5 mg/kg, po after 0.5 hrs; assay type: functional
[2] = system: Rattus norvegicus; experiment: Ex vivo receptor occupancy of 5HT2A receptor in rat brain at 10 mg/kg, po after 0.5 hrs; assay type: functional
[3] = molecular target: Voltage-gated inwardly rectifying potassium channel KCNH2 (Homo sapiens, UniProt Q12809); experiment: Displacement of [3H]-dofetilide from human ERG receptor expressed HEK cells
[4] = molecular target: 5-hydroxytryptamine receptor 2A (Homo sapiens, UniProt P28223); experiment: biochemical
Description: Displacement of [3H]- ketanserin from human 5HT2A receptor expressed CHO cells

[5] = molecular target: T1, 5-hydroxytryptamine receptor 2C (Homo sapiens, UniProt P28335); experiment: biochemical
T1 sequence (P28335 whole entry): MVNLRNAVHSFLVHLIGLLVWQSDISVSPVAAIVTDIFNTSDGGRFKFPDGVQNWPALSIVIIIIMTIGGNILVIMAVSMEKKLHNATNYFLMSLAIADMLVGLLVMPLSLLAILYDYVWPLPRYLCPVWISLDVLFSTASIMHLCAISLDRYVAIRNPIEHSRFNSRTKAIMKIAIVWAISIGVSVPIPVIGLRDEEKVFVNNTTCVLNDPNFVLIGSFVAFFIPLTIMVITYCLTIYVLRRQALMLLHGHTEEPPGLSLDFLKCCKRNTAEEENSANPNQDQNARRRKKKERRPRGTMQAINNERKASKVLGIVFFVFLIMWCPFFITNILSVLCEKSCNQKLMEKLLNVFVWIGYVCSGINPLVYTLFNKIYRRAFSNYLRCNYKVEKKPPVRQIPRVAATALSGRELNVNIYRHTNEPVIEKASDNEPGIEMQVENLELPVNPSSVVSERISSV
Description: Displacement of [3H]mesulergine from human 5HT2C receptor expressed CHO cells

[6] = Metabolic stability in human liver microsomes assessed as compound turnover after 0.25 hrs by LC/MS/MS analysis; set-up: dose or concentration left out as unconfirmed
[7] = molecular target: Cytochrome P450 2C9 (Homo sapiens) (UniProt P11712); experiment: Inhibition of CYP2C9
[8] = system: Rattus norvegicus; experiment: Inhibition of ex vivo receptor occupancy of 5HT2A receptor in rat brain at 10 mg/kg, po after 0.5 hrs; assay type: functional
[9] = Plasma concentration in rat at 10 mg/kg, po after 0.5 hrs; assay type: ADME, organism-based; set-up: dose 10 mg/kg, route oral
[10] = Drug level in rat brain at 10 mg/kg, po after 0.5 hrs; assay type: ADME, organism-based; set-up: dose 10 mg/kg, route oral; conditions: read-out: Drug uptake
[11] = Metabolic stability in rat liver microsomes assessed as compound remaining […] after 0.25 hrs by LC/MS/MS analysis; assay type: ADME, Microsome; conditions: read-out: Stability
[12] = Metabolic stability in dog liver microsomes assessed as compound remaining […] after 0.25 hrs by LC/MS/MS analysis; assay type: ADME, Canis lupus familiaris, Microsome; conditions: read-out: Stability
[13] = Metabolic stability in rhesus monkey liver microsomes assessed as compound remaining […] after 0.25 hrs by LC/MS/MS analysis; assay type: ADME, Macaca mulatta, Microsome; conditions: read-out: Stability
[14] = Half life in Sprague-Dawley rat at 0.1 mg/kg, iv and 1 mg/kg, po; assay type: ADME, organism-based; conditions: in vivo
[15] = Plasma clearance in Sprague-Dawley rat at 0.1 mg/kg, iv and 1 mg/kg, po; assay type: ADME, organism-based
[16] = Half life in dog at 0.1 mg/kg, iv and 1 mg/kg, po; assay type: ADME, organism-based, Canis lupus familiaris; conditions: in vivo
[17] = Plasma clearance in dog at 0.1 mg/kg, iv and 1 mg/kg, po; assay type: ADME, organism-based, Canis lupus familiaris
[18] = Half life in rhesus monkey at 0.1 mg/kg, iv and 1 mg/kg, po; assay type: ADME, organism-based, Macaca mulatta; conditions: in vivo
[19] = Plasma clearance in rhesus monkey at 0.1 mg/kg, iv and 1 mg/kg, po; assay type: ADME, organism-based, Macaca mulatta
[20] = Drug level in rat brain at 5 mg/kg, po administered with methocel suspension by electrospray mass spectrometry; assay type: ADME, organism-based; set-up: dose 5 mg/kg, route oral
[21] = Drug level in rat brain at 5 mg/kg, po administered with imwittor/tween by electrospray mass spectrometry; assay type: ADME, organism-based; set-up: dose 5 mg/kg, route oral
[22] = Drug level in rat hepatic portal vein plasma at 5 mg/kg, po administered with methocel suspension by electrospray mass spectrometry; assay type: ADME, organism-based; set-up: dose 5 mg/kg, route oral
[23] = Drug level in rat hepatic portal vein plasma at 5 mg/kg, po administered with imwittor/tween by electrospray mass spectrometry; assay type: ADME, organism-based; set-up: dose 5 mg/kg, route oral
[24] = Drug level in rat cardiac plasma at 5 mg/kg, po administered with methocel suspension by electrospray mass spectrometry; assay type: ADME, organism-based; set-up: dose 5 mg/kg, route oral
[25] = Drug level in rat cardiac plasma at 5 mg/kg, po administered with imwittor/tween by electrospray mass spectrometry; assay type: ADME, organism-based; set-up: dose 5 mg/kg, route oral
[26] = system: Rattus norvegicus; experiment: Ex vivo receptor occupancy of 5HT2A receptor in rat brain at 1 mg/kg, po after 0.5 hrs; assay type: functional
[27] = Volume of distribution at steady state in Sprague-Dawley rat at 0.1 mg/kg, iv and 1 mg/kg, po; assay type: ADME, organism-based; conditions: in vivo, read-out: Vdss
[28] = Plasma concentration in rat at <1 mg/kg, po after 2 hrs; assay type: ADME, organism-based
[29] = system: Rattus norvegicus; experiment: Ex vivo receptor occupancy of 5HT2A receptor in rat brain at <1 mg/kg, po after 2 hrs; assay type: functional
[30] = system: Rattus norvegicus; experiment: Ex vivo receptor occupancy of 5HT2A receptor in rat brain at 3 mg/kg, po after 2 hrs; assay type: functional, organism-based; set-up: dose 3 mg/kg
[31] = Induction of cytochrome P450 activity at 10 uM; assay type: ADME
[32] = Inhibition of CYP1A at 4.8 uM; assay type: ADME
[33] = Inhibition of cytochrome P450 at > 30 uM; assay type: ADME
[34] = system: Canis familiaris; experiment: Cardiotoxicity in dog assessed as increase of QT interval up to 10 mg/kg, iv; assay type: toxicity, organism-based, Canis lupus familiaris; set-up: dose 10 mg/kg, route intravenous; conditions: in vivo
[35] = system: Canis familiaris; experiment: Cardiotoxicity in dog assessed as increase of heart rate up to 10 mg/kg, iv; assay type: toxicity, organism-based, Canis lupus familiaris; set-up: dose 10 mg/kg, route intravenous; conditions: in vivo
[36] = system: Rattus norvegicus; experiment: Increase of slow wave sleep in rat at 3 mg/kg, po after 15 hrs by EEG recordings; assay type: functional, organism-based; set-up: dose 3 mg/kg
[37] = system: Rattus norvegicus; experiment: Decrease of number of awakenings in rat at 3 mg/kg, po after 15 hrs by EMG recordings; assay type: functional, organism-based; set-up: dose 3 mg/kg
[38] = system: Rattus norvegicus; experiment: Sedative activity in rat assessed effect on sleep onset at 3 mg/kg, po after 15 hrs; assay type: ADME, organism-based; set-up: dose 3 mg/kg, route oral; conditions: in vivo
[39] = system: Rattus norvegicus; experiment: Sedative activity in rat assessed effect on time spent on rapid eye movement sleep at 3 mg/kg, po after 15 hrs; assay type: ADME, organism-based; set-up: dose 3 mg/kg, route oral; conditions: in vivo
[40] = Bioavailability in rat; assay type: ADME, organism-based; conditions: in vivo
[41] = Bioavailability in dog; assay type: ADME, organism-based, Canis lupus familiaris; conditions: in vivo
[42] = Bioavailability in rhesus monkey; assay type: ADME, organism-based, Macaca mulatta; conditions: in vivo
[43] = system: Rhesus monkey; experiment: Plasma concentration in rhesus monkey; assay type: ADME, organism-based, Macaca mulatta; conditions: in vivo
[44] = Chemical stability in acetonitrile/water at pH 1 to 10 after 5 days; assay type: physicochemical; conditions: pH 1, 120 h
[45] = system: Mus musculus; experiment: Phototoxicity in mouse assessed as formation of erythema at 10 to 2000 mg/kg, po; assay type: organism-based; set-up: dose 10-2000 mg/kg, route oral; conditions: in vivo
[46] = Stability after 5 days; assay type: physicochemical; conditions: 120 h
[47] = molecular target: Cytochrome P450 2C9 (Homo sapiens) (UniProt P11712); experiment: Inhibition of CYP2C9 at 6 uM

Chain of Voltage-gated inwardly rectifying potassium channel KCNH2 (Q12809 whole entry): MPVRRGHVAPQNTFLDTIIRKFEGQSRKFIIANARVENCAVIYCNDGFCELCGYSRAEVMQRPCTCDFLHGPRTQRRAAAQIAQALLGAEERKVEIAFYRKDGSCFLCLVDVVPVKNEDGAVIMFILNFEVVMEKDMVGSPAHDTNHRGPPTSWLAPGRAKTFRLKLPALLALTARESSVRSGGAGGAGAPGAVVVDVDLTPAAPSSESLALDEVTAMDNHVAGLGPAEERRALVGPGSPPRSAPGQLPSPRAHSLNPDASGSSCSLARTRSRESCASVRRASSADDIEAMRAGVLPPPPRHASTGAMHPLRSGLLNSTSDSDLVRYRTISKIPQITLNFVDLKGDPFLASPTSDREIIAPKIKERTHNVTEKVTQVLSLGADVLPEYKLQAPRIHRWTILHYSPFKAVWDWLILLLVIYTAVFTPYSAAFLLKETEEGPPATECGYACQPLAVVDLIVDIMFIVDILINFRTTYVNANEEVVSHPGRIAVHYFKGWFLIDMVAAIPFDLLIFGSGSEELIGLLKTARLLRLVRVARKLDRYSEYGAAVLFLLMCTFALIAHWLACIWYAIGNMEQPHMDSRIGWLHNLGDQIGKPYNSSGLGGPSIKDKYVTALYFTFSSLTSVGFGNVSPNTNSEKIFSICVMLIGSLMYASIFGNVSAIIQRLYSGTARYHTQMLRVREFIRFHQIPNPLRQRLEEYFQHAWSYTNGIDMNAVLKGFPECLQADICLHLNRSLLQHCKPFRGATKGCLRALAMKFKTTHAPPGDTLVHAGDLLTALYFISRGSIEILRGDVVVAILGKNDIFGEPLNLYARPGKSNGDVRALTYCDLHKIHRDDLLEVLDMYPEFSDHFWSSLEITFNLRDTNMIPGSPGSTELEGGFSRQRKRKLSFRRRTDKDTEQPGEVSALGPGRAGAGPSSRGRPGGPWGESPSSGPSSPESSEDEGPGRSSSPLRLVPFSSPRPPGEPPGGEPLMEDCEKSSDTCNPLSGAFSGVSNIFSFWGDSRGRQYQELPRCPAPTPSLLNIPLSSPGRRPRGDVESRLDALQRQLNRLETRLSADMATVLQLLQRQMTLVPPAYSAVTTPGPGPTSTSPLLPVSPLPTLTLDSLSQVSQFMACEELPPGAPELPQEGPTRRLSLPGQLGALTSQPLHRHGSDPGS
Chain of 5-hydroxytryptamine receptor 2A (P28223 whole entry): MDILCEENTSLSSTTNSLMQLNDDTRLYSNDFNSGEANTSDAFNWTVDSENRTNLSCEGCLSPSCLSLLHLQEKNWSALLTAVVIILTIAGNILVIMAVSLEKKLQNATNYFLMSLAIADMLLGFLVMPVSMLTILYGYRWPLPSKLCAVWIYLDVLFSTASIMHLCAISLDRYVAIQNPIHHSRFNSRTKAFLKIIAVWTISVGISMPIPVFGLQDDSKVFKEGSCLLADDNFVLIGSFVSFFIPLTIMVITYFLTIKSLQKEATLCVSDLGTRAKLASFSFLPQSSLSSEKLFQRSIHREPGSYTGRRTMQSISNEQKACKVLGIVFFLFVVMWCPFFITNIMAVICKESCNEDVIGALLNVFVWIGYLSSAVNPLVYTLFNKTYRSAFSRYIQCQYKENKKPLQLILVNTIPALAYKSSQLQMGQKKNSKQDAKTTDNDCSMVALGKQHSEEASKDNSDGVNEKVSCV
Chain of Cytochrome P450 2C9 (Homo sapiens) (P11712 whole entry, looked up): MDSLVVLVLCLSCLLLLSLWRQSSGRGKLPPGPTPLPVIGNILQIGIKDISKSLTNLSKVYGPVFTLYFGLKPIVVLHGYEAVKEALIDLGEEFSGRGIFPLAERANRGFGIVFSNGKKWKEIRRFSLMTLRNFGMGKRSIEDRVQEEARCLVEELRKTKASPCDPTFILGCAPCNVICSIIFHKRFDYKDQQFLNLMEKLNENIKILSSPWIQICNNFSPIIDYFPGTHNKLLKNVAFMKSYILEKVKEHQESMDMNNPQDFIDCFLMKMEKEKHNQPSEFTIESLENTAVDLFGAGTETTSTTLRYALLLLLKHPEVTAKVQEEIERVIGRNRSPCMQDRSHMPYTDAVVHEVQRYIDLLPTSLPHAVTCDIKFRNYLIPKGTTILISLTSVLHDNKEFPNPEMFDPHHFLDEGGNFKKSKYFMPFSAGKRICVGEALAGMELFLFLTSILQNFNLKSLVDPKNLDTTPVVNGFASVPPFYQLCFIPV

Structure (SMILES): CC(O)c1ccccc1S(=O)(=O)c1ccc(/C=C/c2ccc(F)cc2)cc1 (racemic)
- Activity [1]: 99%
- Activity [2]: 85%
- Ki [3]: 4000 nM
- Ki [4]: 0.07 nM
- Ki [5]: 7 nM
- turnover at 0.25 h [6]: < 10%

Structure (SMILES): O=S(=O)(c1ccc(/C=C/c2ccc(F)cc2)cc1)c1ccccc1CO
- IC50 [7]: 100 nM

Structure (SMILES): NC(=O)c1ccc(S(=O)(=O)c2ccc(/C=C/c3ccc(F)cc3F)cc2)cc1
- inhibition in vivo at 10 mg/kg [8]: 53%
- concentration at 0.5 h [9]: 300 nM
- concentration at 0.5 h [10]: 620 nM
- Ki [3]: 7920 nM
- Ki [4]: 0.65 nM
- Ki [5]: 41 nM
- turnover at 0.25 h [6]: 0%

Structure (SMILES): O=S(=O)(c1ccccc1)c1ccc(/C=C/c2ccc(F)cc2F)cc1
- AUC [20]: 0.38 µM·h
- AUC [21]: 1.96 µM·h
- Activity [2]: 40%
- Ki [3]: 4340 nM
- AUC [22]: 0.46 µM·h
- AUC [23]: 6.39 µM·h
- AUC [24]: 0.09 µM·h
- AUC [25]: 0.79 µM·h
- Ki [4]: 1.32 nM
- Ki [5]: 65 nM
- turnover at 0.25 h [6]: 33%

Structure (SMILES): C[C@H](O)c1ccccc1S(=O)(=O)c1ccc(/C=C/c2ccc(F)cc2)cc1
- Activity [26]: 83%
- remaining at 0.25 h [11]: 50%
- remaining at 0.25 h [12]: 34%
- remaining at 0.25 h [13]: 44%
- half-life [14]: 3.8 h
- clearance [15]: 95 mL/min/kg
- Vd [27]: 19 L/kg
- half-life [16]: 3.15 h
- clearance [17]: 8 mL/min/kg
- half-life [18]: 2.13 h
- clearance [19]: 32 mL/min/kg
- concentration at 2 h [28]: 60 nM
- Activity [29]: 80%
- Activity [30]: Active
- Activity [31]: 8%
- IC50 [32]: 4800 nM
- IC50 [33]: > 30000 nM
- Activity [34]: Non-toxic
- Activity [35]: Non-toxic
- Activity [36]: Active
- Activity [37]: Active
- Activity [38]: Non-toxic
- Activity [39]: Non-toxic
- bioavailability [40]: 44%
- bioavailability [41]: 45%
- bioavailability [42]: 10%
- concentration [43]: 170 nM
- Stability [44]: Stable
- Activity [45]: Toxic
- Stability [46]: Stable
- Ki [3]: 8250 nM
- Ki [4]: 0.22 nM
- Ki [5]: 47 nM
- INH [47]: 6 µM
- turnover at 0.25 h [6]: 45%

Structure (SMILES): NC(=O)c1cccc(S(=O)(=O)c2ccc(/C=C/c3ccc(F)cc3F)cc2)c1
- inhibition in vivo at 10 mg/kg [8]: 50%
- concentration at 0.5 h [9]: 40 nM
- concentration at 0.5 h [10]: 40 nM
- Activity [2]: 50%
- Ki [3]: > 9000 nM
- Ki [4]: 0.2 nM
- Ki [5]: 21 nM
- turnover at 0.25 h [6]: 3%

Now from value to compound, other results behind:

- Ki [4]: 2.1 nM
- Ki [5]: 184 nM
Structure (SMILES): O=S(=O)(c1cccc2cccnc12)N1CCC(CCc2ccc(F)cc2F)CC1
- Ki [3]: > 9000 nM

- concentration at 0.5 h [9]: 2730 nM
- concentration at 0.5 h [10]: 5770 nM
- remaining at 0.25 h [11]: 0%
- remaining at 0.25 h [12]: < 10%
- remaining at 0.25 h [13]: 23%
- half-life [14]: 28 h
- clearance [15]: 3 mL/min/kg
- half-life [16]: 134 h
- clearance [17]: 0.3 mL/min/kg
- half-life [18]: 85 h
- clearance [19]: 0.13 mL/min/kg
- Ki [4]: 0.65 nM
- Ki [5]: 127 nM
- turnover at 0.25 h [6]: 15.8%
Structure (SMILES): NC(=O)c1ccccc1S(=O)(=O)c1ccc(/C=C/c2ccc(F)cc2F)cc1
- inhibition in vivo at 10 mg/kg [8]: 100%
- Activity [2]: > 100%
- Ki [3]: > 9000 nM

- Ki [4]: 1.43 nM
- Ki [5]: 526 nM
- turnover at 0.25 h [6]: 84%
Structure (SMILES): O=S(=O)(c1ccccc1)c1ccc(CCc2ccc(F)cc2F)cc1
- Ki [3]: > 9000 nM

- Ki [5]: 69 nM
Structure (SMILES): O=S(=O)(c1ccc(F)cc1)C1(F)CCN(CCc2ccc(F)cc2F)CC1
- Activity [2]: 98%

- Ki [5]: 100 nM
- turnover at 0.25 h [6]: 99%
Structure (SMILES): O=C(c1ccccc1F)N1CCC(CCc2ccc(F)cc2F)CC1
- Activity [2]: 40%
- Ki [3]: > 9000 nM
